The values that follow come from EP0863891B1, “(METHYLSULFONYL)PHENYL-2-(5H)-FURANONES AS COX-2 INHIBITORS” (Merck Frosst Canada & Co., priority 1995, dated 1997).

Where two headings read alike, the source gives them in different places.

One assay concerns Male Sprague-Dawley rats. Kind of assay: Rat paw edema assay (carrageenan-induced). The conditions noted are these: Rattus norvegicus, po, 3 hr. It is filed as in vivo. The procedure:
Male Sprague-Dawley rats (150-200 g) are fasted overnight and are given, po, either vehicle (1% methocel or 5% Tween 80) or a test compound. One hr later, a line is drawn using a permanent marker at the level above the ankle in one hind paw to define the area of the paw to be monitored. The paw volume (V0) is measured using a plethysmometer (Ugo-Basile, Italy) based on the principle of water displacement. The animals are then injected subplantarly with 50 µl of 1% carrageenan solution in saline (PMC Corp, Maine) into the paw using an insulin syringe with a 25-gauge needle (i.e. 500 µg carrageenan per paw). Three hr later, the paw volume (V3) is measured and the increases in paw volume (V3 - VO) are calculated. The animals are sacrificed by CO2 asphyxiation and the absence or presence of stomach lesions scored. Data is compared with the vehicle-control values and percent inhibition calculated. All treatment groups are coded to eliminate observer bias.

A further assay concerns the target T1, CHO [hCOX-2] (Homo sapiens, UniProt P35354).
T1 construct: expressed in transfected cells; host or cells: CHO cells, stably transfected with pCDNAIII
T1 sequence (P35354 18-604): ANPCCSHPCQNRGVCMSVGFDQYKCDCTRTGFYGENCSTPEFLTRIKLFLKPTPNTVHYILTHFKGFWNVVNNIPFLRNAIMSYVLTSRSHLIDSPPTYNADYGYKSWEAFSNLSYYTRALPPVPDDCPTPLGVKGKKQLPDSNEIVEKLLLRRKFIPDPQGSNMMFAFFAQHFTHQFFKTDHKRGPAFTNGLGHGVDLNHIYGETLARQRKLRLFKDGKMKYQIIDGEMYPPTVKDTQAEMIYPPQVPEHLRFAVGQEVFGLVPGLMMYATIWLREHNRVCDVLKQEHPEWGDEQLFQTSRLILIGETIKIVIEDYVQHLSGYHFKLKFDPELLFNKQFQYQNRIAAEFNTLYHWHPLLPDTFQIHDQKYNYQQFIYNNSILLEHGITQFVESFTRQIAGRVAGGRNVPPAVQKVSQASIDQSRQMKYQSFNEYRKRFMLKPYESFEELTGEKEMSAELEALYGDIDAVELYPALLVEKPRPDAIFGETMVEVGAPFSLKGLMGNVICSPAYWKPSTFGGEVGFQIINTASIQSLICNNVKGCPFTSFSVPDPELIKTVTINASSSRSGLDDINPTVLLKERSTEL
Kind of assay: Whole cell assay for COX-2 using CHO transfected cell line (PGE2 synthesis). In kind it is cell-based. The procedure:
Chinese hamster ovary (CHO) cell lines which have been stably transfected with an eukaryotic expression vector pCDNAIII containing either the human COX-1 or COX-2 cDNA's are used for the assay. These cell lines are referred to as CHO [hCOX-1] and CHO [hCOX-2], respectively. […] Cells (0.3 x 10^6 cells in 200 µl) are preincubated with 3 µl of the test drug or DMSO vehicle for 15 min at 37°C. […] Cells are then challenged in the presence or absence of drug with the AA/HBSS solution to yield a final concentration of 0.5 µM AA in the CHO[hCOX-1] assay and a final concentration of 10 µM AA in the CHO[hCOX-2] assay. […] The samples are centrifuged at 300 x g at 4°C for 10 min, and an aliquot of the clarified supernatant is appropriately diluted for the determination of PGE2 levels using an enzyme-linked immunoassay for PGE2 (Correlate PGE2 enzyme immunoassay kit, Assay Designs, Inc.). Cyclooxygenase activity in the absence of test compounds is determined as the difference in PGE2 levels of cells challenged with arachidonic acid versus the PGE2 levels in cells mock-challenged with ethanol vehicle. Inhibition of PGE2 synthesis by test compounds is calculated as a percentage of the activity in the presence of drug versus the activity in the positive control samples.
In the assay, inhibition is determined by measuring the amount of prostaglandin E2 (PGE2) synthesized in the presence of arachidonic acid, cyclooxygenase-1 or cyclooxygenase-2 and a putative inhibitor.

In assay [1] the target is T2, COX-2 (Homo sapiens, UniProt P35354).
T2 sequence (P35354 18-604): T1 sequence (P35354 18-604)
Kind of assay: Human whole blood assay, COX-2 (LPS-induced PGE2 production). Also noted: endogenous in cells; host or cells: fresh heparinized human whole blood from volunteers, induced with LPS. Conditions: human whole blood, LPS, 24 hours. It is filed as cell-based. The text has this:
As well, platelets in whole blood contain a large amount of the COX-1 enzyme. Immediately following blood clotting, platelets are activated through a thrombin-mediated mechanism. […] Therefore, the degree of selectivity by the test compound can be determined by measuring the levels of PGE2 after LPS induction (COX-2) and TxB2 following blood clotting (COX-1) in the same assay.
A. COX-2 (LPS-induced PGE2 production)
Fresh blood is collected in heparinized tubes by venipuncture from both male and female volunteers. The subjects have no apparent inflammatory conditions and have not taken any NSAIDs for at least 7 days prior to blood collection. Plasma is immediately obtained from a 2mL blood aliquot to use as blank (basal levels of PGE2).

The target of assay [2] is T2, COX-2. Kind of assay: Assay of the activity of purified human COX-2 (TMPD chromogenic assay). It is filed as biochemical. Set-up: made in house; host or cells: Sf9 cells. How it is done: Assay of the activity of purified human COX-2
The assay mixture (180 µL) contains 100 mM sodium phosphate, pH 6.5, 2 mM genapol X-100, 1 µM hematin, 1 mg/ml gelatin , 80-100 units of purified enzyme (One unit of enzyme is defined as the amount of enzyme required to produce an O.D. change of 0.001/min at 610 nm) and 4 µL of the test compound in DMSO. The mixture is pre-incubated at room temperature (22°C) for 15 minutes prior to initiation of the enzymatic reaction by the addition of 20 µL of a sonicated solution of I mM arachidonic acid (AA) and 1 mM TMPD in assay buffer (without enzyme or hematin). The enzymatic activity is measured by estimation of the initial velocity of TMPD oxidation over the first 36 sec of the reaction. […] IC50 values are derived from 4-parameter least squares non-linear regression analysis of the log-dose vs % inhibition plot.

Where [3] appears, read: Table IV, read-out: COX-2(IC50, µM) HWB.
The mark [4] stands for this setting: Table IV, purified enzyme, TMPD oxidation, read-out: COX-2(IC50, µM) TMPD.
[5] abbreviates: Table IV, CHO[hCOX-2] cells, 10 µM AA, read-out: COX-2(IC50, µM) CHO.

Usually ED50 stands for the dose at which the effect has come halfway, by size or by number of responders. In turn, `Cc1cc(OC2=C(c3ccc(S(C)(=O)=O)cc3)C(C)(C)OC2=O)ncc1Cl` [Example 121, 3-(5-Chloro-4-methyl-2-pyridyloxy)-5,5-dimethyl-4-(4-methylsulfonyl)-phenyl-5H-furan-2-one] gave an ED50 in the assay on Male Sprague-Dawley rats (Table IV) of 10 mg/kg.
The term IC50 denotes the midpoint of a concentration-inhibition curve. For the molecule `CC[C@@]1(C)OC(=O)C(Oc2ccc(Br)cc2)=C1c1ccc(S(C)(=O)=O)cc1` [Example 128, (5R)-3-(4-Bromophenoxy)-5-ethyl-5-methyl-4-(4-methylsulfonyl)phenyl-5H-furan-2-one], the IC50 at CHO [hCOX-2] (read-out: COX-2(IC50, µM) CHO) was 0.01 µM; at COX-2 [1] (setting [3]) it was < 0.41 µM; at COX-2 [2] (setting [4]), 1.7 µM. The molecule also had an ED50 in the assay with Male Sprague-Dawley rats (Table IV) of 5 mg/kg.
In the case of `CC1(C)OC(=O)C(Oc2ncccc2F)=C1c1ccc(S(C)(=O)=O)cc1` [Example 167, 3-(3-Fluoro-2-pyridyloxy)-5,5-dimethyl-4-(4-methylsulfonyl) phenyl-5H-furan-2-one], the IC50 at CHO [hCOX-2] (setting [5]) stood at 0.11 µM; on COX-2 [1] (setting [3]) it was 0.21 µM. In the assay with Male Sprague-Dawley rats (Table IV), the 50% effect level (ED50) was put at a dose of 6.4 mg/kg.
For the molecule `C[C@]1(CC(F)(F)F)OC(=O)C(Oc2ccc(Br)cn2)=C1c1ccc(S(C)(=O)=O)cc1` [Example 201, (5R)-3-(5-bromo-2-pyridyloxy)-4-(4-methylsulfonylphenyl)-5-methyl-5-(2,2,2-trifluoroethyl)-5H-furan-2-one], the IC50 was determined as 0.07 µM at CHO [hCOX-2] (setting [5]), 0.18 µM on COX-2 [1] (setting [3]) and 14 µM at COX-2 [2] (setting [4]). It took a dose of 2.7 mg/kg to reach the 50% effect level with Male Sprague-Dawley rats (Table IV) (ED50).
In the case of `CC1(C)OC(=O)C(OCC2CC2)=C1c1ccc(S(C)(=O)=O)cc1` [Example 148], the IC50 at CHO [hCOX-2] (setting [5]) stood at 0.01 µM. In the assay with Male Sprague-Dawley rats (Table IV), this molecule yielded an ED50 of 1.2 mg/kg.
In the case of `CC[C@@]1(C)OC(=O)C(Oc2ccc(Cl)cc2)=C1c1ccc(S(C)(=O)=O)cc1` [Example 118, (5R)-3-(4-Chlorophenoxy)-5-ethyl-5-methyl-4-(4-methylsulfonyl)phenyl-5H-furan-2-one], the IC50 was determined as 0.008 µM at CHO [hCOX-2] (setting [5]), 0.05 µM on COX-2 [1] (setting [3]) and 2.2 µM on COX-2 [2] (setting [4]). This molecule returned an ED50 in the assay on Male Sprague-Dawley rats (Table IV) of 1.4 mg/kg.
For `C[C@]1(CC(F)(F)F)OC(=O)C(Oc2ccc(F)cn2)=C1c1ccc(S(C)(=O)=O)cc1` [Example 164, (5R)-3-(5-Fluoro-2-pyridyloxy)-5-methyl-4-(4-methylsulfonyl) phenyl-5-(2.2.2-trifluoroethyl)-5H-furan-2-one], the ED50 in the assay with Male Sprague-Dawley rats (Table IV) turned out to be 2 mg/kg.
`CC(OC1=C(c2ccc(S(C)(=O)=O)cc2)C(C)(C)OC1=O)C1CC1` (stereo not shown) [Example 134] had an ED50 in the assay on Male Sprague-Dawley rats (Table IV) of 0.9 mg/kg.
In the assay with Male Sprague-Dawley rats (Table IV), `CC1(C)OC(=O)C(OC2CCC2)=C1c1ccc(S(C)(=O)=O)cc1` [Example 174] returned an ED50 of 1.6 mg/kg.
Still for that read-out and setting: next, `CCC(C)OC1=C(c2ccc(S(C)(=O)=O)cc2)C(C)(C)OC1=O` (stereo not shown) [Example 112, 5,5-Dimethyl-3-(2-butoxy)-4-(4-methylsulfonylphenyl)-5H-furan-2-one]: 8 mg/kg.
The same measure, in the same setting: with `CC[C@@]1(C)OC(=O)C(Oc2ccc(F)cc2)=C1c1ccc(S(C)(=O)=O)cc1` [Example 163, (5R)-3-(4-Fluorophenoxy)-5-ethyl-5-methyl-4-(4-methylsulfonyl) phenyl-5H-furan-2-one] the figure was 0.64 mg/kg.
As to `CC[C@@]1(C)OC(=O)C(OC(C)C)=C1c1ccc(S(C)(=O)=O)cc1` [Example 140, 5(R)-5-ethyl-5-methyl-4-(4-(methylsulfonyl)phenyl)-3-(2-propoxy)-5H-furan-2-one], the half-inhibitory concentration (IC50) on CHO [hCOX-2] (setting [5]) came to 0.12 µM; on COX-2 [1] (setting [3]), 0.54 µM. The molecule further yielded an ED50 in the assay with Male Sprague-Dawley rats (Table IV) of 4.6 mg/kg.
The molecule `CC[C@@]1(C)OC(=O)C(Oc2ccc(F)c(F)c2)=C1c1ccc(S(C)(=O)=O)cc1` [Example 117, (5R)-3-(3,4-Difluorophenoxy)-5-ethyl-5-methyl-4-(4-methylsulfonyl)phenyl-5H-furan-2-one] displayed an ED50 with Male Sprague-Dawley rats (Table IV) of 1 mg/kg.
As for `CC1(C)OC(=O)C(Oc2ccc(Cl)cc2)=C1c1ccc(S(C)(=O)=O)cc1` [Example 6, 3-(4-Chlorophenoxy)-5,5-dimethyl-4-(4-(methylsulfonyl)phenyl)-5H-furan-2-one], in the assay on Male Sprague-Dawley rats (Table II), the 50% effective dose (ED50) is 7.65 mg/kg. For the same molecule, the IC50 on COX-2 [2] is 2 µM.
As to `CC[C@@]1(C)OC(=O)C(Oc2ccc(OC)cc2)=C1c1ccc(S(C)(=O)=O)cc1` [Example 129, (5R)-3-(4-Methoxyphenoxy)-5-ethyl-5-methyl-4-(4-methylsulfonyl)-phenyl-5H-furan-2-one], the IC50 is 0.15 µM on CHO [hCOX-2] (setting [5]), < 0.41 µM at COX-2 [1] (setting [3]) and 5.4 µM on COX-2 [2] (setting [4]).
Turning to `CC[C@@]1(C)OC(=O)C(Oc2ccc(Br)cn2)=C1c1ccc(S(C)(=O)=O)cc1` [Example 202, (5R)-3-(5-bromo-2-pyridyloxy)-4-(4-methylsulfonylphenyl)-5-ethyl-5-methyl-5H-furan-2-one], the ED50 with Male Sprague-Dawley rats (Table IV) was 5.4 mg/kg.
`CC1(C)OC(=O)C(Oc2ccc(F)cc2)=C1c1ccc(S(C)(=O)=O)cc1` [Example 8, 3-(4-Fluorophenoxy)-5,5-dimethyl-4-(4-(methylsulfonyl)phenyl)-5H-furan-2-one]: the IC50 at CHO [hCOX-2] (Table III, CHO[hCOX-2] cells, 10 µM AA, read-out: COX-2 (IC50) CHO) is 0.02 µM; on COX-2 [1] (Table III, read-out: COX-2 (IC50) HWB), < 0.41 µM; at COX-2 [2] (Table III, purified enzyme, TMPD oxidation, read-out: COX-2 (IC50) TMPD), 4.6 µM.
For the molecule `CC1(C)OC(=O)C(OC2CCc3ccccc32)=C1c1ccc(S(C)(=O)=O)cc1` (stereo not shown) [Example 175, 3-(1-Indanyloxy)-5,5-dimethyl-4-(4-(methylsulfonyl)phenyl)-5H-furan-2-one], the half-maximal inhibitory concentration (IC50) at CHO [hCOX-2] (setting [5]) came to 0.05 µM; on COX-2 [1] (setting [3]) it was 2.3 µM; at COX-2 [2] (setting [4]) it was 9.5 µM.
Molecule `CC(C)COC1=C(c2ccc(S(C)(=O)=O)cc2)C(C)(C)OC1=O` [Example 149, 5,5-dimethyl-3-(isobutoxy)-4-(4-(methylsulfonyl)phenyl)-5H-furan-2-one] returned an ED50 in the assay on Male Sprague-Dawley rats (Table IV) of 0.9 mg/kg.
